Calls of active or inactive are those of the source. No rule for the calls is given here. Where only a bound is given, the exact number is not on record here.

Chain of Microphthalmia-associated transcription factor (Homo sapiens) (O75030 whole entry, looked up): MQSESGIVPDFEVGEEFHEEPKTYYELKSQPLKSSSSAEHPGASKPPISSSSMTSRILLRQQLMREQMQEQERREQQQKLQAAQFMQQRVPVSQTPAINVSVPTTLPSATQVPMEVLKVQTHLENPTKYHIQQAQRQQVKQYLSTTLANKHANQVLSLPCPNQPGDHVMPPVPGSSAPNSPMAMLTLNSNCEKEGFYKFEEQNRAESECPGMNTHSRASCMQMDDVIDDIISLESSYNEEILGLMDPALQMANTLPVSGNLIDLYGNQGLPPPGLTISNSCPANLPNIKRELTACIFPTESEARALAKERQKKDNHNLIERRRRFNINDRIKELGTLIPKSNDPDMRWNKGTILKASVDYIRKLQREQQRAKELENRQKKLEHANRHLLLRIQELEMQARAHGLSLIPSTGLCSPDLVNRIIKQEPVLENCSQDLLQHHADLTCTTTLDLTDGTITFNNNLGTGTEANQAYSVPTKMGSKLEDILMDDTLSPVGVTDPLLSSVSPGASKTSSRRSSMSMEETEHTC

This test concerns the target Microphthalmia-associated transcription factor (Homo sapiens) (UniProt O75030). Nature of the test: MITF inhibitors, potency by titration, dose response, biochemical, AlphaScreen, human (AID 1259371). The settings on record: AlphaScreen biochemical MITF assay, signal inhibition. Background: In Alpha technology, singlet oxygen from a donor bead excites a nearby acceptor bead.
By IC50 is commonly meant the midpoint of a concentration-inhibition curve. Take `N#C/C(=C\c1ccc(-c2ccccc2C(=O)O)o1)C(=O)NCc1ccco1`: the concentration for half-maximal inhibition (IC50) is 326 nM.

With `Cc1ccc(-c2ncn(-c3ccc(Nc4cc(-n5cnc(Nc6ccccc6)n5)c(F)cn4)cc3)n2)cn1`, the IC50 entry is “inactive”.

Regarding `NC(=O)Cn1cnc2sc3c(c2c1=O)CCC3`, the IC50 entry is “inactive”.

For `O=C(O)CSc1cc(Cl)c2nonc2c1[N+](=O)[O-]`, the IC50 entry is “inactive”.

In the case of `Cc1sc2nc(C)n3c(=O)n(CC(=O)NCc4ccco4)nc3c2c1C`, the IC50 entry is “inactive”.

For the molecule `CC(O)C(=O)N/N=C/C=C/c1ccc([N+](=O)[O-])o1` (stereo unspecified), the IC50 result was “inactive”.

Turning to `O=C(NCc1ccccc1)N1CCN2C(=O)[C@@H]3CSCN3C(=O)[C@H]2C1`, the IC50 entry was “inactive”.

As for `Cn1nnc(-c2ccc(Nc3nccc(-c4ccc5nc(C6CC6)[nH]c(=O)c5c4)n3)cc2)n1`, the IC50 entry is “inactive”.

For the molecule `CC(Oc1ccc(O)cc1)(P(=O)(O)O)P(=O)(O)O`, the half-maximal inhibitory concentration (IC50) is 85.5 nM.

In the case of `O=C(O)c1cc([N+](=O)[O-])cc2c1-c1c(cc([N+](=O)[O-])cc1[N+](=O)[O-])/C2=C/c1ccco1`, the IC50 entry was “inactive”.

On to `O=C(/C=C/c1ccco1)NC(=S)NNC(=O)c1ccccc1O`, for which the IC50 is > 2160 nM (inactive).

Take `CC(C)N(C)CCOC(=O)/C=C/c1ccco1`: the IC50 entry is “inactive”.

Take `N#Cc1cc([N+](=O)[O-])ccc1NC(=O)COC(=O)c1cc(-c2ccco2)nc2ccccc12`: the IC50 result was “inactive”.

In the case of `O=C1OC(c2ccc(Cl)cc2Cl)=N/C1=C\c1ccc([N+](=O)[O-])o1`, the IC50 entry is “inactive”.

As to `Cc1oc(C(=O)O)cc1CSCCSCc1cc(C(=O)O)oc1C`, the IC50 is > 2160 nM (inactive).

With `COc1ccccc1C1(NC(=O)CCCCC2SCC3NC(=O)NC32)CCCC1` (stereo unspecified), the IC50 entry is “inactive”.

On to `Cc1cccc(CN2CCN(S(=O)(=O)c3ccccc3[N+](=O)[O-])CC2)c1`, for which the IC50 was > 5080 nM (inactive).

Regarding `O=C(/C=C/c1ccco1)Nc1nnc(-c2ccco2)s1`, the IC50 was > 6480 nM (inactive).

As for `NC(=O)NC(=O)COC(=O)c1c2c(nc3ccccc13)/C(=C\c1ccco1)CCC2`, the IC50 is 349 nM.

For `Cc1ccc(COc2ccc(/C=N/N=C3\NC(=O)C(CC(=O)O)S3)cc2)cc1` (stereo unspecified), the IC50 result was “inactive”.

Turning to `COc1cc(C)c2c(c1C=O)Oc1c(c(C)c(O)c3c1C(O)OC3=O)OC2=O` (stereo unspecified), the IC50 is 468 nM.

On to `COc1ccc(S(=O)(=O)N2CCN(Cc3ccccc3[N+](=O)[O-])CC2)cc1`, for which the IC50 was > 4330 nM (inactive).

With `Cc1ccc(N[C@@H]2OC[C@@H](O)C(O)C2O)cc1N[C@@H]1OC[C@@H](O)C(O)C1O` (stereo partly specified), the IC50 entry is “inactive”.

Regarding `COc1ccc2c(c1)CC(c1nc(Nc3ccc4cnccc4c3)c3ccccc3n1)CO2` (stereo unspecified), the IC50 was > 6480 nM (inactive).

Turning to `O=C(NCCc1ccc(O)cc1)c1cccc(-c2cccs2)c1`, the IC50 is > 6260 nM (inactive).

In the case of `COC(=O)CN1C(=O)S/C(=C/c2ccc([N+](=O)[O-])o2)C1=O`, the IC50 entry is “inactive”.

Take `O=C(O)c1cccc(-n2cccc2/C=C\[N+](=O)[O-])c1`: the 50% inhibitory concentration (IC50) was 271 nM.

For `CCOc1ccc(CN2CCN(Cc3cccnc3)CC2)cc1`, the IC50 is > 5780 nM (inactive).

Turning to `Cc1ccc(C(=O)Nc2ccc([N+](=O)[O-])cn2)o1`, the IC50 is > 6480 nM (inactive).

Turning to `CC(C)(C)c1ccc(OCCn2cncn2)c(Cl)c1`, the IC50 is > 6480 nM (inactive).

Take `O=C(CCc1ccco1)Nc1ccc(-c2cn3c4c(nnc3n2)CCCC4)cc1`: the half-maximal inhibitory concentration (IC50) is 32 nM.

Take `Cc1ncn(-c2ccc(N(C)c3ncc4cccc(-c5ccn[nH]5)c4n3)cc2)n1`: the IC50 was > 6480 nM (inactive).

Take `O=C1N[C@@H](CSCc2ccccc2)C(=O)N2CCN(C(=O)NC3CCCCC3)C[C@H]12`: the IC50 result was “inactive”.

On to `CCCCCCCCCCCCCCCC(=O)OC[C@H](O)[C@H]1OC(=O)C(=O)C1O` (stereo partly specified), for which the IC50 result was “inactive”.

Take `Cc1ccc(S(=O)(=O)C(CNC(=O)c2ccco2)c2cccs2)cc1` (stereo unspecified): the IC50 result is “inactive”.

As to `O=c1[nH]cc(N=Cc2ccc([N+](=O)[O-])o2)c(=O)[nH]1`, the 50% inhibitory concentration (IC50) was 7 nM.

`COC(C)(C)CNC(=O)C1CCN(C2CCN(Cc3cccc(C)n3)CC2)CC1`: the IC50 entry is “inactive”.

`O=C(/C=C/c1ccco1)Nc1c[nH]c(=O)[nH]c1=O`: the IC50 entry is “inactive”.

With `O=C(COC(=O)/C=C/c1ccco1)COC(=O)/C=C/c1ccco1`, the IC50 was 122 nM.

With `C/C(N)=C(/C#N)C(=O)COC(=O)c1c2c(nc3ccccc13)/C(=C/c1ccco1)CC2`, the half-maximal inhibitory concentration (IC50) is 443 nM.

With `O=C(O)c1cccc(-n2cccc2/C=C2/NC(=O)N(c3ccc(Cl)cc3)C2=O)c1`, the IC50 is 42.2 nM.

Take `COc1cc(/C=C2\C(C)=C([N+](=O)[O-])CS2(=O)=O)ccc1O`: the IC50 is 30.8 nM.

As to `NC1(C(Cl)(Cl)Cl)Oc2ccccc2O1`, the 50% inhibitory concentration (IC50) was 232 nM.

Turning to `C=CCNCCOCCOc1ccc(OCC)cc1`, the IC50 is > 6480 nM (inactive).

Turning to `NC(=O)COC(=O)/C=C/c1ccc(I)o1`, the IC50 entry is “inactive”.

As to `O=C1N[C@H](CO)C(=O)N2CCN(C(=O)NCc3ccccc3)C[C@H]12`, the IC50 is 526 nM.

As for `CN1CCN(CCNC(=O)c2cccc(CN(C(=O)c3nc4ccc(-c5cn[nH]c5)cc4s3)C3CC3)c2)CC1`, the concentration for half-maximal inhibition (IC50) is 645 nM.

Consider `CC[C@H](C)[C@@H]1NC(=O)[C@H]2CN(C(=O)Nc3cccc(F)c3)CCN2C1=O`, for which the IC50 result is “inactive”.

On to `COC(=O)CSc1nnc(-c2cnccn2)n1C`, for which the IC50 is > 6480 nM (inactive).

On to `NC(=O)CSc1ccc(C(N)=O)cc1[N+](=O)[O-]`, for which the IC50 result was “inactive”.

With `c1coc(CNc2ccc3ncc(-c4ccco4)n3n2)c1`, the IC50 entry was “inactive”.

For the molecule `Cc1n[nH]c(=O)nc1NNc1ccc(C(=O)O)cc1`, the IC50 result was “inactive”.

On to `CN(C)/C=C/C=C/C(=O)C1CCC/C(=C\C=C\N(C)C)C1=O` (stereo unspecified), for which the IC50 was 85 nM.

In the case of `O=C1N[C@H](Cc2ccc(O)cc2)C(=O)N2CCN(C(=O)NCc3ccccc3)C[C@H]12`, the IC50 result was “inactive”.

For `CN1CCN(C(=O)c2ccc(-c3nc(Nc4ccccc4)c4ncn(C5CCCCC5)c4n3)cc2)CC1`, the IC50 is > 7630 nM (inactive).

In the case of `CN(C)/C=C/C=C/C=C/C(=O)c1ccc(C(=O)/C=C/C=C/C=C/N(C)C)cc1`, the IC50 is 96.7 nM.

With `Clc1ccc2c(c1)CC(c1nc(Nc3cncnc3)c3ccccc3n1)CO2` (stereo unspecified), the IC50 entry was “inactive”.

Take `O=C(NNC(=O)c1cc(-c2ccco2)nc2ccccc12)NC1CCCCC1`: the IC50 is 126 nM.

Turning to `CCOC(=O)C1CCCN(Cc2cccc(Br)c2)C1` (stereo unspecified), the IC50 is > 6480 nM (inactive).

`O=C(OC1CCCC1=O)c1ccc(Cl)c(S(=O)(=O)N2CCOCC2)c1` (stereo unspecified): the IC50 entry was “inactive”.

As to `Nc1ccc(NCCO)c(N)c1`, the IC50 result was “inactive”.

On to `CCN(CC)CC(=O)Nc1ccc(OC)cc1`, for which the IC50 was > 6480 nM (inactive).

In the case of `Oc1ccc2c(c1)C1CCCC1(N1CCOCC1)O2` (stereo unspecified), the IC50 entry was “inactive”.

On to `Cc1cc(NC(=O)C2CCN(C(=O)c3ccc(-n4cccc4)cc3)CC2)no1`, for which the IC50 entry was “inactive”.

In the case of `COc1cccc(COC(=O)Nc2cc(F)c(-c3cn[nH]c3)cc2OCCN(C)C)c1`, the IC50 entry was “inactive”.

As to `N#C/C(=C/c1ccco1)c1cccc(F)c1`, the IC50 result was “inactive”.

Take `O=C(O)c1cc(S(=O)(=O)Nc2ccncc2)ccc1O`: the IC50 result is “inactive”.

For `CC(=O)Oc1ccccc1N1C(=O)c2ccc(Oc3cccc(N)c3)cc2C1=O`, the IC50 is 479 nM.

As to `CN(C)CCS(=O)c1cc(-c2cn[nH]c2)ccc1NC(=O)[C@H]1Cc2cc(F)ccc2CN1` (stereo partly specified), the IC50 result was “inactive”.

Turning to `CN(C)CCN(C(=O)OCc1ccccc1)c1cc(-c2cn[nH]c2)ccc1NC(=O)OCc1ccccc1`, the IC50 result is “inactive”.

As to `CCOC(=O)C1C2NC(=S)N(CC)C1(C)Oc1ccc(Br)cc12` (stereo unspecified), the IC50 is > 6310 nM (inactive).

`COc1nccnc1NS(=O)(=O)c1ccc(NC(=O)c2ccc([N+](=O)[O-])c(C)c2)cc1`: the IC50 is > 6480 nM (inactive).

Take `N#C/C(=C(/O)COC(=O)c1cc2c(s1)CCC2)c1nc2ccccc2[nH]1`: the half-inhibitory concentration (IC50) is 693 nM.

As to `CSc1ccc(C(=O)O)s1`, the IC50 result is “inactive”.

Regarding `O=C(OCN1C(=O)c2ccccc2C1=O)c1cc2c(s1)CCC2`, the 50% inhibitory concentration (IC50) was 734 nM.

As to `O=C(/C=C/c1ccco1)NCc1cccc(CNC(=O)/C=C/c2ccco2)c1`, the IC50 was 115 nM.

`COc1cc(OC)c(OC)cc1CN1CCN(Cc2ccc(C)cc2)CC1`: the IC50 was > 5760 nM (inactive).

As to `Cc1cc(C)nc(NS(=O)(=O)c2ccc(N3C(=O)C=CC3=O)cc2)n1`, the IC50 was > 2160 nM (inactive).

For `Cc1c(NC(=O)C(C)OC(=O)c2cc3c(s2)CCC3)c(=O)n(-c2ccccc2)n1C` (stereo unspecified), the IC50 was 953 nM.

As for `Cc1cc(C)n2nc(N)c(N)c2n1`, the IC50 was > 11600 nM (inactive).

In the case of `N/C(=N\[N+](=O)[O-])N/N=C\c1ccc(-c2ccc(O)c(C(=O)O)c2)o1`, the IC50 is 129 nM.

On to `CCCCOc1ccc(C(=O)N/C(=C/c2ccco2)C(=O)O)cc1`, for which the IC50 result was “inactive”.

`O=C(O)c1coc(CNC(=O)c2cocc2C(=O)O)c1`: the IC50 entry is “inactive”.

In the case of `NC(=O)c1ccccc1NC(=S)NC(=O)/C=C/c1ccco1`, the IC50 is 471 nM.

`O=[N+]([O-])c1ccc(Br)c2c1no[n+]2[O-]`: the IC50 result was “inactive”.

As for `CNC(=O)Nc1ccc2nc(-c3ccco3)c(-c3ccco3)nc2c1`, the 50% inhibitory concentration (IC50) is 47.4 nM.

Consider `O=C(NCC(O)C(=O)N1CCOCC1)c1cccc(Nc2ccc3[nH]ncc3c2)n1` (stereo unspecified), for which the IC50 entry was “inactive”.

As to `CC(=O)Oc1cc(C(=O)OCC(=O)Nc2ccc(C)cc2)cc(OC(C)=O)c1OC(C)=O`, the IC50 entry is “inactive”.

As for `COc1ccc(S(=O)(=O)CCC(=O)Nc2nc3ccc(OC)cc3s2)cc1`, the IC50 was > 4550 nM (inactive).

For the molecule `O=C(OCCCC(=O)N1CCOCC1)c1cc(-c2ccco2)nc2ccccc12`, the IC50 result was “inactive”.

In the case of `COc1cc(OC)c(C(=O)OC2CCCC2=O)cc1OC` (stereo unspecified), the IC50 result was “inactive”.

Values taken from PubChem BioAssay AID1259371 (The Scripps Research Institute Molecular Screening Center, 2018).
